Literature values, collected in patent publication US20100197666A1, “(THIO) -CARBAMOYL-CYCLOHEXANE DERIVATIVES AND METHOD FOR TREATING SCHIZOPHRENIA” (priority 2007, published 2010).

Key:
Conditions in all cases: background statement; cited from earlier work
[1] = system: adrenergic receptor sites
histamine H1 = histamine H1 (Homo sapiens, UniProt P35367)
5-HT2C = 5-HT2C (Homo sapiens, UniProt P28335)
Chain of 5-HT2C (P28335 33-458, species assumed): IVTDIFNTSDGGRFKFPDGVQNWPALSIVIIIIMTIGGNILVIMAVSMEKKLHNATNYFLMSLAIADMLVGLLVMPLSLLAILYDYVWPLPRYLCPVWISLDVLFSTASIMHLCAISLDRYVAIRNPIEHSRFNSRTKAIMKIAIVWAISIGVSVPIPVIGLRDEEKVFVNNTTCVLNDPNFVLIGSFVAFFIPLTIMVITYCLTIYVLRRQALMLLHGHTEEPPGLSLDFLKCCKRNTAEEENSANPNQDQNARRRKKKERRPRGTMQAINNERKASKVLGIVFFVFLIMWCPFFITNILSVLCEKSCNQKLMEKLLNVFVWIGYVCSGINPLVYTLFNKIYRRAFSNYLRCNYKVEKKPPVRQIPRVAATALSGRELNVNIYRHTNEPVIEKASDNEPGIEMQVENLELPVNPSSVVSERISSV

Chain of histamine H1 (P35367 whole entry): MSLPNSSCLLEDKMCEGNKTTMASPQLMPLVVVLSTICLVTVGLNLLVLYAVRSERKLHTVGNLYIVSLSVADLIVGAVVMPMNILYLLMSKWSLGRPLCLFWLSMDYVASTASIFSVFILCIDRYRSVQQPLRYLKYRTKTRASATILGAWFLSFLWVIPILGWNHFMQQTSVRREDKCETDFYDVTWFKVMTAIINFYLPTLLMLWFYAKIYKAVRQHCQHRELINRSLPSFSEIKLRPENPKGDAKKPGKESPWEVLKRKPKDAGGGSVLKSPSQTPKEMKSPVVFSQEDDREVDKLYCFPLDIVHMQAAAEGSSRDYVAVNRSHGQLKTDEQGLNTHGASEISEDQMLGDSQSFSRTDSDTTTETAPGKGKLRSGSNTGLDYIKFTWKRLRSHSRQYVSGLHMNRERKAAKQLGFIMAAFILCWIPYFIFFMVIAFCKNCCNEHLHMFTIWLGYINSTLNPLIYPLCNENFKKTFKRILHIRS

CN(C)C(=O)NC1CCC(CCN2CCN(c3cccc(Cl)c3Cl)CC2)CC1.Cl (stereo not drawn) [trans-4-{2-[4-(2,3-dichlorophenyl)-piperazin-1-yl]-ethyl}-N,N-dimethylcarbamoyl-cyclohexylamine hydrochloride]
low potency: potency at adrenergic receptor sites [1] | potency at histamine H1 receptor site (histamine H1) | potency at 5-HT2C receptor site (5-HT2C)
